Experimental data as given in ChEMBL document CHEMBL4371069, “Click chemistry for improvement in selectivity of quinazoline-based kinase inhibitors for mutant epidermal growth factor receptors” (Bioorg Med Chem Lett, 2019).

Biological target: CYP2E1 (Homo sapiens, UniProt P05181)
Test: Inhibition of CYP2E1 in human liver microsomes assessed as residual activity at 10 uM using chlorzoxazone as substrate preincubated for 5 mins followed by NADPH addition and measured after 15 mins by LC-MS/MS analysis relative to control
Format: ADME
Details: probe chlorzoxazone, read-out: Activity

CYP2E1, sequence (P05181 whole entry): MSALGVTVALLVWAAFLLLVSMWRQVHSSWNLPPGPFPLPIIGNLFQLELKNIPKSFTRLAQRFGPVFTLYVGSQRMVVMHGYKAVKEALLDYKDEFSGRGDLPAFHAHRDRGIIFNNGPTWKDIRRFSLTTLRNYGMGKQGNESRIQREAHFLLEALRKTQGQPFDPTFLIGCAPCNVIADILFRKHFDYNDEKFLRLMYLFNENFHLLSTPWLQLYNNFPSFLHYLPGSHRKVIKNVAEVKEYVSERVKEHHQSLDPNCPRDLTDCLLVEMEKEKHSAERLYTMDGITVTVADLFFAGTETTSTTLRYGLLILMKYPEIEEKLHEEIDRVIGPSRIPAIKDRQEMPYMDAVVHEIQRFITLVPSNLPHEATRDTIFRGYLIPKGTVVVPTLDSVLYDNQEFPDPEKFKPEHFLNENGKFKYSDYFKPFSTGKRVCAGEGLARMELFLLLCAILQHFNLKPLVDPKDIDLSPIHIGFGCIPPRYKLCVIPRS

| SMILES | activity at 0.25 h, 10 µM [%] |
| --- | --- |
| C=CC(=O)Nc1cc2c(Nc3ccc(F)c(Cl)c3)ncnc2cc1OCc1cn(Cc2cccc(F)c2)nn1 | 59 |
| C=CC(=O)Nc1cc2c(Nc3ccc(F)c(Cl)c3)ncnc2cc1OCc1cn(Cc2ccc(Cl)cc2)nn1 | 63.4 |
| C=CC(=O)Nc1cc2c(Nc3ccc(F)c(Cl)c3)ncnc2cc1OCc1cn(Cc2ccc(F)cc2)nn1 | 60.9 |

Test system: HepG2
Test: Cytotoxicity against human HepG2 cells after 24 hrs by LDH release assay
Format: cell-based
Details: HepG2, 24 h

| SMILES | IC50 [nM] |
| --- | --- |
| C=CC(=O)Nc1cc2c(Nc3ccc(F)c(Cl)c3)ncnc2cc1OCc1cn(Cc2cccc(F)c2)nn1 | 29000 |
| C=CC(=O)Nc1cc2c(Nc3ccc(F)c(Cl)c3)ncnc2cc1OCc1cn(Cc2ccc(Cl)cc2)nn1 | 60000 |
| C=CC(=O)Nc1cc2c(Nc3ccc(F)c(Cl)c3)ncnc2cc1OCc1cn(Cc2ccc(F)cc2)nn1 | 27000 |

Biological target: CYP3A4 (Homo sapiens, UniProt P08684)
Sequence (P08684 whole entry): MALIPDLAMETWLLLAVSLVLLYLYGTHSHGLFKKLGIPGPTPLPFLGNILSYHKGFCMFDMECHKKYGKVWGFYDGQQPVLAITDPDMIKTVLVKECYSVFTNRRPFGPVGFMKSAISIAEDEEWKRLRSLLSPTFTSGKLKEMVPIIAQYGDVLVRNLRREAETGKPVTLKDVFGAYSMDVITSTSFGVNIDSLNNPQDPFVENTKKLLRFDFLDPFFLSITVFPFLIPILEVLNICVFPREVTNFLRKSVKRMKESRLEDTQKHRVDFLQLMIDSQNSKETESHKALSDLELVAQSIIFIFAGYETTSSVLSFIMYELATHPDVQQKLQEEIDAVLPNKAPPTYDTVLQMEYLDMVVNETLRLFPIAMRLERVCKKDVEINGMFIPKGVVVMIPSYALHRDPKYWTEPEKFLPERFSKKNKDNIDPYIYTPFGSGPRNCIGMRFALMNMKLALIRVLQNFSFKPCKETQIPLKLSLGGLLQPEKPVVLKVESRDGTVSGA
Test: Inhibition of CYP3A4 in human liver microsomes assessed as residual activity at 10 uM using midazolam as substrate preincubated for 5 mins followed by NADPH addition and measured after 15 mins by LC-MS/MS analysis relative to control
Format: ADME
Details: probe midazolam, read-out: Activity

| SMILES | activity at 0.25 h, 10 µM [%] |
| --- | --- |
| C=CC(=O)Nc1cc2c(Nc3ccc(F)c(Cl)c3)ncnc2cc1OCc1cn(Cc2cccc(F)c2)nn1 | 50.1 |
| C=CC(=O)Nc1cc2c(Nc3ccc(F)c(Cl)c3)ncnc2cc1OCc1cn(Cc2ccc(Cl)cc2)nn1 | 77.6 |
| C=CC(=O)Nc1cc2c(Nc3ccc(F)c(Cl)c3)ncnc2cc1OCc1cn(Cc2ccc(F)cc2)nn1 | 55.3 |

Biological target: T1, CYP2B6 (Homo sapiens, UniProt P20813)
T1 sequence (P20813 whole entry): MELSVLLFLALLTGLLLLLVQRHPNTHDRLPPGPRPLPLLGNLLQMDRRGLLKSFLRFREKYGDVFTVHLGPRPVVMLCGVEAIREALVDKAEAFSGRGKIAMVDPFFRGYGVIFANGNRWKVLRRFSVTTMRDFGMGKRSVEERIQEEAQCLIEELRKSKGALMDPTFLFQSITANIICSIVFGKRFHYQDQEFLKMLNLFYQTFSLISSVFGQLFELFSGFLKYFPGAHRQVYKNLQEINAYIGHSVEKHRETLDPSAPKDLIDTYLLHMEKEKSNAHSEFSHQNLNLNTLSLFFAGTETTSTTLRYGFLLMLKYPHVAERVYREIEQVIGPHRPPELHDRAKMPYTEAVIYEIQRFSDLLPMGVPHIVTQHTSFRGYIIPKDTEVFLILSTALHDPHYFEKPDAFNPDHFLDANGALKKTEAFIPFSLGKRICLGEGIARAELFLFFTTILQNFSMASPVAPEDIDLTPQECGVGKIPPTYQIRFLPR
Test: Inhibition of CYP2B6 in human liver microsomes assessed as residual activity at 10 uM using bupropion as substrate preincubated for 5 mins followed by NADPH addition and measured after 15 mins by LC-MS/MS analysis relative to control
Format: ADME
Details: probe bupropion, read-out: Activity

| SMILES | activity at 0.25 h, 10 µM [%] |
| --- | --- |
| C=CC(=O)Nc1cc2c(Nc3ccc(F)c(Cl)c3)ncnc2cc1OCc1cn(Cc2cccc(F)c2)nn1 | 67.1 |
| C=CC(=O)Nc1cc2c(Nc3ccc(F)c(Cl)c3)ncnc2cc1OCc1cn(Cc2ccc(Cl)cc2)nn1 | 78.8 |
| C=CC(=O)Nc1cc2c(Nc3ccc(F)c(Cl)c3)ncnc2cc1OCc1cn(Cc2ccc(F)cc2)nn1 | 67.9 |

Biological target: CYP2D6 (Homo sapiens, UniProt P10635)
Sequence (P10635 whole entry): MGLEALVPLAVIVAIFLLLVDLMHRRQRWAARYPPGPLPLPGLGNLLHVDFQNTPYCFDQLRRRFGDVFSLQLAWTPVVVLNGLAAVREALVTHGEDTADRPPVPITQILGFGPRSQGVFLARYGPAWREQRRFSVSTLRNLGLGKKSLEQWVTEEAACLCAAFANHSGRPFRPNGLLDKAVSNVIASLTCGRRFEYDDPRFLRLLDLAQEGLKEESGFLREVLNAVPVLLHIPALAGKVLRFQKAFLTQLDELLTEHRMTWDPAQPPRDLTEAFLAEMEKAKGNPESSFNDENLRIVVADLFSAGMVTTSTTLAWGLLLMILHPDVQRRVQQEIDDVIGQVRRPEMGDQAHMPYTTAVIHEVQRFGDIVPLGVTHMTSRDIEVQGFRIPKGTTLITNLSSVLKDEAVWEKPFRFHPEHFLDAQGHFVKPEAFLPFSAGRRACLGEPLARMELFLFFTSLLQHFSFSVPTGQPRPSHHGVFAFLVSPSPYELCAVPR
Test: Inhibition of CYP2D6 in human liver microsomes assessed as residual activity at 10 uM using dextromethorphan as substrate preincubated for 5 mins followed by NADPH addition and measured after 15 mins by LC-MS/MS analysis relative to control
Format: ADME
Details: probe dextromethorphan, read-out: Activity

| SMILES | activity at 0.25 h, 10 µM [%] |
| --- | --- |
| C=CC(=O)Nc1cc2c(Nc3ccc(F)c(Cl)c3)ncnc2cc1OCc1cn(Cc2cccc(F)c2)nn1 | 14.9 |
| C=CC(=O)Nc1cc2c(Nc3ccc(F)c(Cl)c3)ncnc2cc1OCc1cn(Cc2ccc(Cl)cc2)nn1 | 24.4 |
| C=CC(=O)Nc1cc2c(Nc3ccc(F)c(Cl)c3)ncnc2cc1OCc1cn(Cc2ccc(F)cc2)nn1 | 12.2 |

Biological target: Epidermal growth factor receptor (Homo sapiens, UniProt P00533, L858R/T790M)
Sequence (P00533 25-1210 T790M/L858R limits assumed): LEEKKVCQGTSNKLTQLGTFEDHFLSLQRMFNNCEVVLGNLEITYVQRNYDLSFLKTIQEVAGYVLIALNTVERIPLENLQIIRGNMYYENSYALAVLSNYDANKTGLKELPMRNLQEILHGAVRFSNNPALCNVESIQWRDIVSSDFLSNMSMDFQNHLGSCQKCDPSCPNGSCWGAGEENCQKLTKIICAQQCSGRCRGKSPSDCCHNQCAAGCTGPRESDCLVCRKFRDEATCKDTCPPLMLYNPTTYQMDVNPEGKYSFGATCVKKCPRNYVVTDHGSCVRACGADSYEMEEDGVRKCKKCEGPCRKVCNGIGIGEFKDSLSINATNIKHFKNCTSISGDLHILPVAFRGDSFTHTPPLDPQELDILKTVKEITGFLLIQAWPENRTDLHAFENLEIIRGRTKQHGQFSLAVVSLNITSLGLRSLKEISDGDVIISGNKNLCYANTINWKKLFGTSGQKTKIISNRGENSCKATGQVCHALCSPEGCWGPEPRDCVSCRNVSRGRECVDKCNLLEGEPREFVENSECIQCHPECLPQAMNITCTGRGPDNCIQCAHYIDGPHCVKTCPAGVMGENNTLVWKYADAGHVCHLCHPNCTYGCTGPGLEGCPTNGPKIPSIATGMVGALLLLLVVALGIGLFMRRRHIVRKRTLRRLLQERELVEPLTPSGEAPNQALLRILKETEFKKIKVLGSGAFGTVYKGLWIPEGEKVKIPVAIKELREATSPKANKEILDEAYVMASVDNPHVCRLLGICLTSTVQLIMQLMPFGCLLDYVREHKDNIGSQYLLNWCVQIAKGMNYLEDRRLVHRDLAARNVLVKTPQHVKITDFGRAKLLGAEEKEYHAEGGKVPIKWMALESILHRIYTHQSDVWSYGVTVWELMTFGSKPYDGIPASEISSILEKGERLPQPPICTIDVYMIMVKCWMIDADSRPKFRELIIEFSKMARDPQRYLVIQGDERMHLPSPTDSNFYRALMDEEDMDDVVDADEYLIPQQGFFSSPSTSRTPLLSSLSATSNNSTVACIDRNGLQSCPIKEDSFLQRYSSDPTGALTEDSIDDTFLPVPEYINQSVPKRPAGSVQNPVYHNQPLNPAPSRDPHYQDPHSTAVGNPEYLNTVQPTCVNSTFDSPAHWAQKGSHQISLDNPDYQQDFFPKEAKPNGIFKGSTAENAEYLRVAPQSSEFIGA
Test: biochemical
Format: cell-based, Sf21
Details: not given

| SMILES | IC50 [nM] |
| --- | --- |
| C=CC(=O)Nc1cc2c(Nc3ccc(F)c(Cl)c3)ncnc2cc1OCc1cn(Cc2cccc(F)c2)nn1 | 4 |
| C=CC(=O)Nc1cc2c(Nc3ccc(F)c(Cl)c3)ncnc2cc1OCc1cn(Cc2ccc(Cl)cc2)nn1 | 12 |
| C=CC(=O)Nc1cc2c(Nc3ccc(F)c(Cl)c3)ncnc2cc1OCc1cn(Cc2ccc(F)cc2)nn1 | 6 |

Test system: NCI-H1975
Test: Antiproliferative activity against human NCI-H1975 cells harboring EGFR T790M/L858R double mutant after 72 hrs by EZ-Cytox assay
Format: functional, cell-based
Details: NCI-H1975, 72 h

| SMILES | IC50 [nM] |
| --- | --- |
| C=CC(=O)Nc1cc2c(Nc3ccc(F)c(Cl)c3)ncnc2cc1OCc1cn(Cc2cccc(F)c2)nn1 | 505 |
| C=CC(=O)Nc1cc2c(Nc3ccc(F)c(Cl)c3)ncnc2cc1OCc1cn(Cc2ccc(Cl)cc2)nn1 | 304 |
| C=CC(=O)Nc1cc2c(Nc3ccc(F)c(Cl)c3)ncnc2cc1OCc1cn(Cc2ccc(F)cc2)nn1 | 453 |

Test system: PC-9
Test: Antiproliferative activity against human PC9 cells harboring EGFR exon-19 del mutant after 72 hrs by EZ-Cytox assay
Format: functional, cell-based
Details: PC-9, 72 h

| SMILES | IC50 [nM] |
| --- | --- |
| C=CC(=O)Nc1cc2c(Nc3ccc(F)c(Cl)c3)ncnc2cc1OCc1cn(Cc2cccc(F)c2)nn1 | 0.9 |
| C=CC(=O)Nc1cc2c(Nc3ccc(F)c(Cl)c3)ncnc2cc1OCc1cn(Cc2ccc(Cl)cc2)nn1 | 0.9 |
| C=CC(=O)Nc1cc2c(Nc3ccc(F)c(Cl)c3)ncnc2cc1OCc1cn(Cc2ccc(F)cc2)nn1 | 1 |

Biological target: hERG (KCNH2) (Homo sapiens, UniProt Q12809)
Sequence (Q12809 whole entry): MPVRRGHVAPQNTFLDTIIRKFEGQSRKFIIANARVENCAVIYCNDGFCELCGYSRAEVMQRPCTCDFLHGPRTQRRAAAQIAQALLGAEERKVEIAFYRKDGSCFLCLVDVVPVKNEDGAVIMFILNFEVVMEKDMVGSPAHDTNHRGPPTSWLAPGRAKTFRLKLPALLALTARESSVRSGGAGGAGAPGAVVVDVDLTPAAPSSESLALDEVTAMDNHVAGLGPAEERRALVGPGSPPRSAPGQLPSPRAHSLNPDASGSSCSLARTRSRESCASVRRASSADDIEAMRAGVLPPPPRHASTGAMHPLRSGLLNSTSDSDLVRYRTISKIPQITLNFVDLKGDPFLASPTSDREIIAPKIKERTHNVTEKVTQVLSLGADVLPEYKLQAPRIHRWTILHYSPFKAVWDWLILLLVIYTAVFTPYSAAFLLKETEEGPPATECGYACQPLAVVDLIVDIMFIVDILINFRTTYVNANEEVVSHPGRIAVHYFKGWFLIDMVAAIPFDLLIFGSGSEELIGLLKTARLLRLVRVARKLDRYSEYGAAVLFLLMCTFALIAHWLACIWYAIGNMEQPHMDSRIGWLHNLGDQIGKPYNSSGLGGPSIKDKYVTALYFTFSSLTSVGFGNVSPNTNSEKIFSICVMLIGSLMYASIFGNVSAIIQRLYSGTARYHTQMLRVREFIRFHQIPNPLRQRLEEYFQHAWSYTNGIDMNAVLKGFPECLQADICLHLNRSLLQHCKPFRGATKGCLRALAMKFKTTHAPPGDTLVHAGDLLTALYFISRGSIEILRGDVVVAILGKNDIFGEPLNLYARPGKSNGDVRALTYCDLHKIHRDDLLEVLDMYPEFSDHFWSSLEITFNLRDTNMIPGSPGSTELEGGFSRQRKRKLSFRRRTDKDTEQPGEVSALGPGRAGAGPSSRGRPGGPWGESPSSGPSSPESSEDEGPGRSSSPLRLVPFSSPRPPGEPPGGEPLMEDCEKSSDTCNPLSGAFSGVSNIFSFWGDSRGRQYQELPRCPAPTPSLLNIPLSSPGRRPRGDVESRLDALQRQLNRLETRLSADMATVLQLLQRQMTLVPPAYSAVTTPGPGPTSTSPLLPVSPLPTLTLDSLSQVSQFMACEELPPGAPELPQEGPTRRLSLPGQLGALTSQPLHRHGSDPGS
Test: Inhibition of human ERG expressed in HEK cell at 10 uM at -70 mV holding potential by patch clamp method relative to control
Details: HEK cells that express hERG

| SMILES | inhibition at 10 µM [%] |
| --- | --- |
| C=CC(=O)Nc1cc2c(Nc3ccc(F)c(Cl)c3)ncnc2cc1OCc1cn(Cc2cccc(F)c2)nn1 | 20.7 |
| C=CC(=O)Nc1cc2c(Nc3ccc(F)c(Cl)c3)ncnc2cc1OCc1cn(Cc2ccc(Cl)cc2)nn1 | 33.6 |
| C=CC(=O)Nc1cc2c(Nc3ccc(F)c(Cl)c3)ncnc2cc1OCc1cn(Cc2ccc(F)cc2)nn1 | 46.2 |

Biological target: Receptor tyrosine-protein kinase erbB-2 (Homo sapiens, UniProt P04626)
Test: Inhibition of human C-terminal His6-tagged ERBB2 (676 to end residues) expressed in baculovirus infected sf21 cells using poly(Glu, Tyr) 4:1 as substrate
Details: not given

| SMILES | IC50 [nM] |
| --- | --- |
| C=CC(=O)Nc1cc2c(Nc3ccc(F)c(Cl)c3)ncnc2cc1OCc1cn(Cc2cccc(F)c2)nn1 | 209 |
| C=CC(=O)Nc1cc2c(Nc3ccc(F)c(Cl)c3)ncnc2cc1OCc1cn(Cc2ccc(Cl)cc2)nn1 | 225 |
| C=CC(=O)Nc1cc2c(Nc3ccc(F)c(Cl)c3)ncnc2cc1OCc1cn(Cc2ccc(F)cc2)nn1 | 212 |

Test system: SK-BR-3
Test: Antiproliferative activity against HER2-dependant human SKBR3 cells after 72 hrs by EZ-Cytox assay
Format: ADME, cell-based
Details: SK-BR-3, 72 h

| SMILES | IC50 [nM] |
| --- | --- |
| C=CC(=O)Nc1cc2c(Nc3ccc(F)c(Cl)c3)ncnc2cc1OCc1cn(Cc2cccc(F)c2)nn1 | 115 |
| C=CC(=O)Nc1cc2c(Nc3ccc(F)c(Cl)c3)ncnc2cc1OCc1cn(Cc2ccc(Cl)cc2)nn1 | 266 |
| C=CC(=O)Nc1cc2c(Nc3ccc(F)c(Cl)c3)ncnc2cc1OCc1cn(Cc2ccc(F)cc2)nn1 | 143 |

Test system: not listed separately
Test: Safety index, ratio of compound IC50 to afatinib IC50 for antiproliferative activity against HER2-dependant human SKBR3 cells
Format: cell-based
Details: SK-BR-3 cells (HER2-dependent), read-out: Ratio IC50

| SMILES | selectivity ratio |
| --- | --- |
| C=CC(=O)Nc1cc2c(Nc3ccc(F)c(Cl)c3)ncnc2cc1OCc1cn(Cc2cccc(F)c2)nn1 | > 95 |
| C=CC(=O)Nc1cc2c(Nc3ccc(F)c(Cl)c3)ncnc2cc1OCc1cn(Cc2ccc(Cl)cc2)nn1 | > 95 |
| C=CC(=O)Nc1cc2c(Nc3ccc(F)c(Cl)c3)ncnc2cc1OCc1cn(Cc2ccc(F)cc2)nn1 | > 95 |

Biological target: T2, CYP2A6 (Homo sapiens, UniProt P11509)
T2 sequence (P11509 whole entry): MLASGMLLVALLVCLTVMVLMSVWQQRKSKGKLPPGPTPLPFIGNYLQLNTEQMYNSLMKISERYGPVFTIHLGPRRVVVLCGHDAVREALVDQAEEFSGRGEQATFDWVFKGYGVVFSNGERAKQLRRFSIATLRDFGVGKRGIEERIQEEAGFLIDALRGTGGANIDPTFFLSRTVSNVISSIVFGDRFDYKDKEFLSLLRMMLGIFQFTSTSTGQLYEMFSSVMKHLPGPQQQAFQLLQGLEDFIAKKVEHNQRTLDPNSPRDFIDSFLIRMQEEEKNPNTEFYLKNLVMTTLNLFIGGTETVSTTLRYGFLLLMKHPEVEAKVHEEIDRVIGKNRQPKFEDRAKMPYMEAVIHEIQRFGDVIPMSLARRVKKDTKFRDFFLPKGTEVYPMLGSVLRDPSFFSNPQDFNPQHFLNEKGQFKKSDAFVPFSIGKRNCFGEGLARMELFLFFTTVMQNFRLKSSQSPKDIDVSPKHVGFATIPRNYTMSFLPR
Test: Inhibition of CYP2A6 in human liver microsomes assessed as residual activity at 10 uM using coumarin as substrate preincubated for 5 mins followed by NADPH addition and measured after 15 mins by LC-MS/MS analysis relative to control
Format: ADME
Details: probe coumarin, read-out: Activity

| SMILES | activity at 0.25 h, 10 µM [%] |
| --- | --- |
| C=CC(=O)Nc1cc2c(Nc3ccc(F)c(Cl)c3)ncnc2cc1OCc1cn(Cc2cccc(F)c2)nn1 | 91 |
| C=CC(=O)Nc1cc2c(Nc3ccc(F)c(Cl)c3)ncnc2cc1OCc1cn(Cc2ccc(Cl)cc2)nn1 | 89 |
| C=CC(=O)Nc1cc2c(Nc3ccc(F)c(Cl)c3)ncnc2cc1OCc1cn(Cc2ccc(F)cc2)nn1 | 82.7 |

Biological target: CYP2C9 (Homo sapiens, UniProt P11712)
Sequence (P11712 whole entry): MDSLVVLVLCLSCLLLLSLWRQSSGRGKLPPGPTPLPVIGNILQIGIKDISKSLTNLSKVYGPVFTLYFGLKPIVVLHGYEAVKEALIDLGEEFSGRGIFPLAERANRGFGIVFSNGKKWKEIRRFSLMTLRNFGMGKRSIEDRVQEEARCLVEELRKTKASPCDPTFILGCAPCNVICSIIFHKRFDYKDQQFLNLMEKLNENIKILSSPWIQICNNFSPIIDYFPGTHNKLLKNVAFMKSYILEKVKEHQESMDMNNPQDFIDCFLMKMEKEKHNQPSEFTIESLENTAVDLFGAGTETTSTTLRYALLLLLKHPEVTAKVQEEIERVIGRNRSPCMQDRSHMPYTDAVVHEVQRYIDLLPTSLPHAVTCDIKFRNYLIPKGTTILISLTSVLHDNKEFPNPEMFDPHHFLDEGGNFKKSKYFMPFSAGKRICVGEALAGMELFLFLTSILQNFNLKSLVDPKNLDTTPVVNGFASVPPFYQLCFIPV
Test: Inhibition of CYP2C9 in human liver microsomes assessed as residual activity at 10 uM using tolbutamide as substrate preincubated for 5 mins followed by NADPH addition and measured after 15 mins by LC-MS/MS analysis relative to control
Format: ADME
Details: probe tolbutamide, read-out: Activity

| SMILES | activity at 0.25 h, 10 µM [%] |
| --- | --- |
| C=CC(=O)Nc1cc2c(Nc3ccc(F)c(Cl)c3)ncnc2cc1OCc1cn(Cc2cccc(F)c2)nn1 | 11.8 |
| C=CC(=O)Nc1cc2c(Nc3ccc(F)c(Cl)c3)ncnc2cc1OCc1cn(Cc2ccc(Cl)cc2)nn1 | 16.3 |
| C=CC(=O)Nc1cc2c(Nc3ccc(F)c(Cl)c3)ncnc2cc1OCc1cn(Cc2ccc(F)cc2)nn1 | 13.5 |

Biological target: T3, CYP1A2 (Homo sapiens, UniProt P05177)
T3 sequence (P05177 whole entry): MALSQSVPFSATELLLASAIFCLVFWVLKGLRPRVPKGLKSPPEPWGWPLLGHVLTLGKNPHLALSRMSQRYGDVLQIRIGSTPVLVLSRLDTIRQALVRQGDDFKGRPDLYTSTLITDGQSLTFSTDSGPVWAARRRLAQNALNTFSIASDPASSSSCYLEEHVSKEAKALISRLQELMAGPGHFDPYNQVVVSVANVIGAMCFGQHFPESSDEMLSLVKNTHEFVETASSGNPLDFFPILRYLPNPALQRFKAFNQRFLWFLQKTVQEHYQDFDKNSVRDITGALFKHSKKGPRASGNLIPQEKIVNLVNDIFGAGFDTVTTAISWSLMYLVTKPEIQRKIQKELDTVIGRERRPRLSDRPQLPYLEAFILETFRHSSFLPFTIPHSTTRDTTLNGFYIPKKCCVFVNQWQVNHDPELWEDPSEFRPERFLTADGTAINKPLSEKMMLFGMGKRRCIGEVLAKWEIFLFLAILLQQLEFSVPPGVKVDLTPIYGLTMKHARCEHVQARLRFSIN
Test: Inhibition of CYP1A2 in human liver microsomes assessed as residual activity at 10 uM using phenacetin as substrate preincubated for 5 mins followed by NADPH addition and measured after 15 mins by LC-MS/MS analysis relative to control
Format: ADME
Details: probe phenacetin, read-out: Activity

| SMILES | activity at 0.25 h, 10 µM [%] |
| --- | --- |
| C=CC(=O)Nc1cc2c(Nc3ccc(F)c(Cl)c3)ncnc2cc1OCc1cn(Cc2cccc(F)c2)nn1 | 52.5 |
| C=CC(=O)Nc1cc2c(Nc3ccc(F)c(Cl)c3)ncnc2cc1OCc1cn(Cc2ccc(Cl)cc2)nn1 | 60.8 |
| C=CC(=O)Nc1cc2c(Nc3ccc(F)c(Cl)c3)ncnc2cc1OCc1cn(Cc2ccc(F)cc2)nn1 | 51.1 |
